Target: glucagon receptor (Homo sapiens, UniProt P47871)
Experiment: cell-based

Sequence of glucagon receptor (P47871 26-477): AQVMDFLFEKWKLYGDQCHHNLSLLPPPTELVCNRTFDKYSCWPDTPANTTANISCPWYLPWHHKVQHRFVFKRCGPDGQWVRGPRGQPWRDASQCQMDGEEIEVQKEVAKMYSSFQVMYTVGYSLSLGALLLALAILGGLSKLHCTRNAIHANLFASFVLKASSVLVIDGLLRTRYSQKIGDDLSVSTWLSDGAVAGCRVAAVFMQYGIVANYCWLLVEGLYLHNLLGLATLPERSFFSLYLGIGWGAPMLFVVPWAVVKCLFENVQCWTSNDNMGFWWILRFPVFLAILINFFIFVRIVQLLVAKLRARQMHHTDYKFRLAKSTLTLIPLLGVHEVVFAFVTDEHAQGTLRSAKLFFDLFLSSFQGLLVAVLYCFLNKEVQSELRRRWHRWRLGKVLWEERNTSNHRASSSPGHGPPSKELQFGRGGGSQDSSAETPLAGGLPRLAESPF

SMILES	EC50
CC(C)C[C@H](NC(=O)[C@H](Cc1ccc(O)cc1)NC(=O)[C@H](CCCCN)NC(=O)[C@H](CO)NC(=O)[C@H](Cc1ccc(O)cc1)NC(=O)[C@H](CC(=O)O)NC(=O)[C@H](CO)NC(=O)[C@@H](NC(=O)[C@H](Cc1ccccc1)NC(=O)[C@@H](NC(=O)CNC(=O)[C@H](CCC(N)=O)NC(=O)[C@H](CO)NC(=O)[C@@H](N)Cc1c[nH]cn1)[C@@H](C)O)[C@@H](C)O)C(=O)N[C@@H](CC(=O)O)C(=O)N[C@@H](CO)C(=O)N[C@@H](CCCNC(=N)N)C(=O)N[C@@H](CCCNC(=N)N)C(=O)N[C@@H](C)C(=O)N[C@@H](CCC(N)=O)C(=O)N[C@@H](CC(=O)O)C(=O)N[C@@H](Cc1ccccc1)C(=O)N[C@H](C(=O)N[C@@H](CCCCNC(=O)CC[C@H](NC(=O)CC[C@H](NC(=O)COCCOCCNC(=O)COCCOCCNC(=O)CC[C@H](NC(=O)CCCCCCCCCCCCCCCCC(=O)O)C(=O)O)C(=O)O)C(=O)O)C(=O)N[C@@H](Cc1c[nH]c2ccccc12)C(=O)N[C@@H](CC(C)C)C(=O)N[C@@H](CC(C)C)C(=O)N[C@@H](CC(N)=O)C(=O)N1CCC[C@H]1C(=O)O)C(C)C [Example 81, N^ε24-[(4S)-4-carboxy-4-[[(4S)-4-carboxy-4-[[2-[2-[2-[[2-[2-[2-[[(4S)-4-carboxy-4-(17-carboxyheptadecanoylamino)butanoyl]amino]ethoxy]ethoxy]acetyl]amino]ethoxy]ethoxy]acetyl]amino]butanoyl]amino]butanoyl]-[Lys^24,Leu^27,Pro^29]-Glucagon]	0.156 nM
CC(C)C[C@H](NC(=O)[C@H](Cc1ccc(O)cc1)NC(=O)[C@H](CCCCN)NC(=O)[C@H](CO)NC(=O)[C@H](Cc1ccc(O)cc1)NC(=O)[C@H](CC(=O)O)NC(=O)[C@H](CO)NC(=O)[C@@H](NC(=O)[C@H](Cc1ccccc1)NC(=O)[C@@H](NC(=O)CNC(=O)[C@H](CCC(N)=O)NC(=O)[C@H](CO)NC(=O)[C@@H](N)Cc1c[nH]cn1)[C@@H](C)O)[C@@H](C)O)C(=O)N[C@@H](CC(=O)O)C(=O)N[C@@H](CO)C(=O)N[C@@H](CCCNC(=N)N)C(=O)N[C@@H](CCCNC(=N)N)C(=O)N[C@@H](C)C(=O)N[C@@H](CCC(N)=O)C(=O)N[C@@H](CC(=O)O)C(=O)N[C@@H](Cc1ccccc1)C(=O)N[C@H](C(=O)N[C@@H](CCC(N)=O)C(=O)N[C@@H](Cc1c[nH]c2ccccc12)C(=O)N[C@@H](CC(C)C)C(=O)N[C@@H](CC(C)C)C(=O)N[C@@H](CCCCNC(=O)CC[C@H](NC(=O)CC[C@H](NC(=O)COCCOCCNC(=O)COCCOCCNC(=O)CC[C@H](NC(=O)CCCCCCCCCCCCCCCCC(=O)O)C(=O)O)C(=O)O)C(=O)O)C(=O)N[C@H](C(=O)N1CCC[C@H]1C(=O)O)[C@@H](C)O)C(C)C [Example 82, N^ε28-[(4S)-4-carboxy-4-[[(4S)-4-carboxy-4-[[2-[2-[2-[[2-[2-[2-[[(4S)-4-carboxy-4-(17-carboxyheptadecanoylamino)butanoyl]amino]ethoxy]ethoxy]acetyl]amino]ethoxy]ethoxy]acetyl]amino]butanoyl]amino]butanoyl]-[Leu^27,Lys^28]-Glucagonyl-Pro]	0.128 nM
CC(C)C[C@H](NC(=O)[C@H](Cc1ccc(O)cc1)NC(=O)[C@H](CCCCN)NC(=O)[C@H](CO)NC(=O)[C@H](Cc1ccc(O)cc1)NC(=O)[C@H](CC(=O)O)NC(=O)[C@H](CO)NC(=O)[C@@H](NC(=O)[C@H](Cc1ccccc1)NC(=O)[C@@H](NC(=O)CNC(=O)[C@H](CCC(N)=O)NC(=O)[C@H](CO)NC(=O)[C@@H](N)Cc1c[nH]cn1)[C@@H](C)O)[C@@H](C)O)C(=O)N[C@@H](CC(=O)O)C(=O)N[C@@H](CO)C(=O)N[C@@H](CCCNC(=N)N)C(=O)N[C@@H](CCCNC(=N)N)C(=O)N[C@@H](C)C(=O)N[C@@H](CCC(N)=O)C(=O)N[C@@H](CC(=O)O)C(=O)N[C@@H](Cc1ccccc1)C(=O)N[C@H](C(=O)N[C@@H](CCC(N)=O)C(=O)N[C@@H](Cc1c[nH]c2ccccc12)C(=O)N[C@@H](CC(C)C)C(=O)N[C@@H](CCCCNC(=O)CC[C@H](NC(=O)CC[C@H](NC(=O)COCCOCCNC(=O)COCCOCCNC(=O)CC[C@H](NC(=O)CCCCCCCCCCCCCCCCC(=O)O)C(=O)O)C(=O)O)C(=O)O)C(=O)N[C@@H](CC(N)=O)C(=O)N1CCC[C@H]1C(=O)O)C(C)C [Example 85, N^ε27-[(4S)-4-carboxy-4-[[(4S)-4-carboxy-4-[[2-[2-[2-[[2-[2-[2-[[(4S)-4-carboxy-4-(17-carboxyheptadecanoylamino)butanoyl]amino]ethoxy]ethoxy]acetyl]amino]ethoxy]ethoxy]acetyl]amino]butanoyl]amino]butanoyl]-[Lys^27,Pro^29]-Glucagon]	1.17 nM
CC(C)C[C@H](NC(=O)[C@H](Cc1ccc(O)cc1)NC(=O)[C@H](CCCCN)NC(=O)[C@H](CO)NC(=O)[C@H](Cc1ccc(O)cc1)NC(=O)[C@H](CC(=O)O)NC(=O)[C@H](CO)NC(=O)[C@@H](NC(=O)[C@H](Cc1ccccc1)NC(=O)[C@@H](NC(=O)CNC(=O)[C@H](CCC(N)=O)NC(=O)[C@H](CO)NC(=O)[C@@H](N)Cc1c[nH]cn1)[C@@H](C)O)[C@@H](C)O)C(=O)N[C@@H](CC(=O)O)C(=O)N[C@@H](CO)C(=O)N[C@@H](CCCNC(=N)N)C(=O)N[C@@H](CCCNC(=N)N)C(=O)N[C@@H](C)C(=O)N[C@@H](CCC(N)=O)C(=O)N[C@@H](CC(=O)O)C(=O)N[C@@H](Cc1ccccc1)C(=O)N[C@H](C(=O)N[C@@H](CCC(N)=O)C(=O)N[C@@H](Cc1c[nH]c2ccccc12)C(=O)N[C@@H](CC(C)C)C(=O)N[C@@H](CC(C)C)C(=O)N[C@@H](CCCCNC(=O)CC[C@H](NC(=O)CC[C@H](NC(=O)COCCOCCNC(=O)COCCOCCNC(=O)CC[C@H](NC(=O)CCCCCCCCCCCCCCCCC(=O)O)C(=O)O)C(=O)O)C(=O)O)C(=O)N1CCC[C@H]1C(=O)O)C(C)C [Example 86, N^ε28-[(4S)-4-carboxy-4-[[(4S)-4-carboxy-4-[[2-[2-[2-[[2-[2-[2-[[(4S)-4-carboxy-4-(17-carboxyheptadecanoylamino)butanoyl]amino]ethoxy]ethoxy]acetyl]amino]ethoxy]ethoxy]acetyl]amino]butanoyl]amino]butanoyl]-[Leu^27,Lys^28,Pro^29]-Glucagon]	0.189 nM
CC(C)C[C@H](NC(=O)[C@H](Cc1ccc(O)cc1)NC(=O)[C@H](CCCNC(=N)N)NC(=O)[C@H](CO)NC(=O)[C@H](Cc1ccc(O)cc1)NC(=O)[C@H](CC(=O)O)NC(=O)[C@H](CO)NC(=O)[C@@H](NC(=O)[C@H](Cc1ccccc1)NC(=O)[C@@H](NC(=O)CNC(=O)[C@H](CCC(N)=O)NC(=O)[C@H](CO)NC(=O)[C@@H](N)Cc1c[nH]cn1)[C@@H](C)O)[C@@H](C)O)C(=O)N[C@@H](CC(=O)O)C(=O)N[C@@H](CO)C(=O)N[C@@H](CCCNC(=N)N)C(=O)N[C@@H](CCCNC(=N)N)C(=O)N[C@@H](C)C(=O)N[C@@H](CCC(N)=O)C(=O)N[C@@H](CC(=O)O)C(=O)N[C@@H](Cc1ccccc1)C(=O)N[C@H](C(=O)N[C@@H](CCC(N)=O)C(=O)N[C@@H](Cc1c[nH]c2ccccc12)C(=O)N[C@@H](CC(C)C)C(=O)N[C@@H](CCCCNC(=O)CC[C@H](NC(=O)CC[C@H](NC(=O)COCCOCCNC(=O)COCCOCCNC(=O)CC[C@H](NC(=O)CCCCCCCCCCCCCCCCC(=O)O)C(=O)O)C(=O)O)C(=O)O)C(=O)N[C@@H](CC(N)=O)C(=O)N1CCC[C@H]1C(=O)O)C(C)C [Example 87, N^ε27-[(4S)-4-carboxy-4-[[(4S)-4-carboxy-4-[[2-[2-[2-[[2-[2-[2-[[(4S)-4-carboxy-4-(17-carboxyheptadecanoylamino)butanoyl]amino]ethoxy]ethoxy]acetyl]amino]ethoxy]ethoxy]acetyl]amino]butanoyl]amino]butanoyl]-[Arg^12,Lys^27,Pro^29]-Glucagon]	2.11 nM
CC(C)C[C@H](NC(=O)[C@H](Cc1ccc(O)cc1)NC(=O)[C@H](CCCCN)NC(=O)[C@H](CO)NC(=O)[C@H](Cc1ccc(O)cc1)NC(=O)[C@H](CC(=O)O)NC(=O)[C@H](CO)NC(=O)[C@@H](NC(=O)[C@H](Cc1ccccc1)NC(=O)[C@@H](NC(=O)CNC(=O)[C@H](CCC(N)=O)NC(=O)[C@H](CO)NC(=O)[C@@H](N)Cc1c[nH]cn1)[C@@H](C)O)[C@@H](C)O)C(=O)N[C@@H](CC(=O)O)C(=O)N[C@@H](CO)C(=O)N[C@@H](CCCNC(=N)N)C(=O)N[C@@H](CCCNC(=N)N)C(=O)N[C@@H](C)C(=O)N[C@@H](CCC(N)=O)C(=O)N[C@@H](CCC(=O)O)C(=O)N[C@@H](Cc1ccccc1)C(=O)N[C@H](C(=O)N[C@@H](CCCCNC(=O)CC[C@H](NC(=O)CC[C@H](NC(=O)COCCOCCNC(=O)CC[C@H](NC(=O)CCCCCCCCCCCCCCCCC(=O)O)C(=O)O)C(=O)O)C(=O)O)C(=O)N[C@@H](Cc1c[nH]c2ccccc12)C(=O)N[C@@H](CC(C)C)C(=O)N[C@@H](CC(C)C)C(=O)N[C@@H](CO)C(=O)N[C@H](C(=O)O)[C@@H](C)O)C(C)C [Example 91, N^ε24-[(4S)-4-carboxy-4-[[(4S)-4-carboxy-4-[[2-[2-[2-[[(4S)-4-carboxy-4-(17-carboxyheptadecanoylamino)butanoyl]amino]ethoxy]ethoxy]acetyl]amino]butanoyl]amino]butanoyl]-[Glu21,Lys24,Leu27,Ser28]-Glucagon]	0.053 nM
CC(C)C[C@H](NC(=O)[C@H](Cc1ccc(O)cc1)NC(=O)[C@H](CCCCN)NC(=O)[C@H](CO)NC(=O)[C@H](Cc1ccc(O)cc1)NC(=O)[C@H](CCC(=O)O)NC(=O)[C@H](CO)NC(=O)[C@@H](NC(=O)[C@H](Cc1ccccc1)NC(=O)[C@@H](NC(=O)CNC(=O)[C@H](CCC(N)=O)NC(=O)[C@H](CO)NC(=O)[C@@H](N)Cc1c[nH]cn1)[C@@H](C)O)[C@@H](C)O)C(=O)N[C@@H](CC(=O)O)C(=O)N[C@@H](CO)C(=O)N[C@@H](CCCNC(=N)N)C(=O)N[C@@H](CCCNC(=N)N)C(=O)N[C@@H](C)C(=O)N[C@@H](CCC(N)=O)C(=O)N[C@@H](CC(=O)O)C(=O)N[C@@H](Cc1ccccc1)C(=O)N[C@H](C(=O)N[C@@H](CCCCNC(=O)CC[C@H](NC(=O)CC[C@H](NC(=O)COCCOCCNC(=O)CC[C@H](NC(=O)CCCCCCCCCCCCCCCCC(=O)O)C(=O)O)C(=O)O)C(=O)O)C(=O)N[C@@H](Cc1c[nH]c2ccccc12)C(=O)N[C@@H](CC(C)C)C(=O)N[C@@H](CC(C)C)C(=O)N[C@@H](CO)C(=O)N[C@H](C(=O)O)[C@@H](C)O)C(C)C [Example 92, N^ε24-[(4S)-4-carboxy-4-[[(4S)-4-carboxy-4-[[2-[2-[2-[[(4S)-4-carboxy-4-(17-carboxyheptadecanoylamino)butanoyl]amino]ethoxy]ethoxy]acetyl]amino]butanoyl]amino]butanoyl]-[Glu^9,Lys^24,Leu^27,Ser^28]-Glucagon]	2.2 nM
